In patent US6184401A, “Alpha-fluoro alkynoic acids with anticonvulsant activity” (priority 1999, dated 2001):

Experiments:
hepatotoxicity = settings: effect of the 2-fluoro substituent; cited from earlier work
[1] = anticonvulsant; cited from earlier work
[2] = system: animals (seizure induced by pentylenetetrazole); test: PTZ convulsion test (anticonvulsant activity); assay type: in vivo; settings: intraperitoneal, sodium salt, PTZ 65 mg/kg s.c. after 15 minutes
Procedure: The anti-convulsive activity of the compounds of the invention was determined by the PTZ convulsion test (E. Swinyard et al., 1969, "Laboratory Evaluation of Antiepileptic Drugs, Review of Laboratory Methods," Epilepsia 10, 107-119; E. Swinyard, J. Woodhead, in Antiepileptic Drugs, 2nd ed., D. Woodbury, J. Penry, C. Pippenger, eds., Raven Press, New York, 1982, 111-126). Briefly, animals were dosed intraperitoneally with the sodium salt of the compound to be tested, and then challenged after 15 minutes with a subcutaneous injection of pentylenetetrazole (65 mg/kg). The percentage of animals that were protected from seizure (defined as at least one episode of continuous seizure activity lasting at least five seconds) is reported in Table 1 as "Anticonvulsant Activity %".

fetuses = test: Teratogenic potential: exencephaly in fetuses of treated pregnant animals; assay type: in vivo; settings: sodium salt, injected day 8 of gestation, fetuses examined day 18
Procedure: The teratogenic potential of the compounds was determined by injecting pregnant animals on day 8 of gestation with the sodium salt of the compound to be tested, and by examining the fetuses on day 18 of gestation (H. Nau, 1985, Toxicol. Appl. Pharmacol., 80, 243-250; H. Nau, W. Loscher, 1986, Fund. Appl. Toxicol., 6, 669).

animals = assay type: in vivo; settings: dose 1.5 mmol/kg, sodium salt, after 15 minutes
Procedure: The sedative activity of the compounds was determined by the "Rotorod" test (Dunham, Miya, 1957, J. Am. Pharm. Assoc., 46, 208-209). Animals were dosed with the sodium salt of the compound to be tested, and after 15 minutes they were placed on the ROTOROD apparatus (Rotorod, Ugobasile, Italy). The percentage of animals that fell from the rod is reported as "Sedative Activity %" in Table 1.

[3] = system: newborns of women taking VPA; settings: newborns of women taking VPA during pregnancy; cited from earlier work
mice = settings: cited from earlier work
[4] = in vivo; cited from earlier work
children on polytherapy = settings: young children on polytherapy; cited from earlier work

C=CCC(F)(CCC)C(=O)O (centres unmarked) [2-fluoro-2-propyl-4-pentenoic acid]
hepatotoxicity relative to 2-propyl-4-pentenoic acid (hepatotoxicity): reduce hepatotoxicity relative to 2-propyl-4-pentenoic acid

CCCC(F)(CCC)C(=O)O [2-fluoro-2-propylpentanoic acid]
potency relative to VPA [1]: less potent than VPA

O=C(O)C(CCC(F)(F)F)CCC(F)(F)F [5,5,5-trifluoro-2-(3,3,3-trifluoropropyl) pentanoic acid]
potency relative to VPA [1]: less potent than VPA

CCCC(CCC(F)(F)F)C(=O)O (centres unmarked) [5,5,5-trifluoro-2-n-propyl pentanoic acid]
potency relative to VPA [1]: less potent than VPA

CC#CCC(F)(CCC)C(=O)O (centres unmarked) [Example 3, 2-fluoro-2-n-propyl-4-hexynoic acid]
Anticonvulsant Activity % (percentage of animals protected from seizure) ([2]; dose 1.5 mmol/kg): 20%
Teratogenic Activity % (percent of fetuses exhibiting exencephaly) (fetuses; dose 3.0 mmol/kg): 2%

CC#CCC(F)(CCCCC)C(=O)O (centres unmarked) [Example 5, 2-fluoro-2-n-pentyl-4-hexynoic acid]
Anticonvulsant Activity % (percentage of animals protected from seizure) ([2]; dose 1.5 mmol/kg): 80%
Teratogenic Activity % (percent of fetuses exhibiting exencephaly) (fetuses; dose 1.5 mmol/kg): 1%

CC#CCC(F)(CCCCCCC)C(=O)O (centres unmarked) [Example 7, 2-fluoro-2-n-heptyl-4-hexynoic acid]
Anticonvulsant Activity % (percentage of animals protected from seizure) ([2]; dose 0.5 mmol/kg): 60%
Teratogenic Activity % (percent of fetuses exhibiting exencephaly) (fetuses; dose 1.0 mmol/kg): 0%

CC#CCC(F)(CCCCCCCC)C(=O)O (centres unmarked) [Example 8, 2-fluoro-2-n-octyl-4-hexynoic acid]
Anticonvulsant Activity % (percentage of animals protected from seizure) ([2]; dose 0.25 mmol/kg): 40%
Teratogenic Activity % (percent of fetuses exhibiting exencephaly) (fetuses; dose 0.5 mmol/kg): 0%

CCCC(CCC)C(=O)O [VPA, 2-propylpentanoic acid]
Anticonvulsant Activity % (percentage of animals protected from seizure) ([2]; dose 1.0 mmol/kg): 60%
Sedative Activity % (percentage of animals that fell from the rod) (animals): 40%
Teratogenic Activity % (percent of fetuses exhibiting exencephaly) (fetuses; dose 3.0 mmol/kg): 50%
risk of spina bifida [3]: 1-2%
neural tube defects (mice): induce neural tube defects in mice
duration of action [4]: short duration of action
serious side effects [4]: sedation, potentially fatal hepatotoxicity, and teratogenicity
VPA-induced hepatic fatality rate (children on polytherapy): 1/500
